Experimental data: ChEMBL document CHEMBL2331252, “Facile one-pot synthesis of novel dispirooxindole-pyrrolidine derivatives and their antimicrobial and anticancer activity against A549 human lung adenocarcinoma cancer cell line” (Bioorg Med Chem Lett, 2013)
In brackets after ≈: the same amount, converted by molar mass. Activity calls are given as the source filed them. The calls are words filed in the database; no cut-off is given here.

Assays:
Assay type in all cases: functional
A549 [1] = assay: Cytotoxicity against human A549 cells assessed as cell death at 50 ug/ml by MTT assay
A549 [2] = assay: Cytotoxicity against human A549 cells assessed as cell death at 200 ug/ml by MTT assay
A549 [3] = assay: Cytotoxicity against human A549 cells assessed as cell death at 100 ug/ml by MTT assay
Candida albicans [4] = assay: Antifungal activity against Candida albicans MTCC 227 after 48 to 72 hrs
Staphylococcus aureus [5] = assay: Antibacterial activity against methicillin-resistant Staphylococcus aureus after 24 hrs
Staphylococcus aureus [6] = assay: Antibacterial activity against Staphylococcus aureus MTCC 96 after 24 hrs; conditions: MTCC 96, 24 h
Klebsiella aerogenes [7] = assay: Antibacterial activity against Enterobacter aerogenes MTCC 111 after 24 hrs
Micrococcus luteus [8] = assay: Antibacterial activity against Micrococcus luteus MTCC 106 after 24 hrs; conditions: MTCC 106, 24 h
Shigella flexneri [9] = assay: Antibacterial activity against Shigella flexneri MTCC 1457 after 24 hrs; conditions: MTCC 1457, 24 h
Proteus vulgaris [10] = assay: Antibacterial activity against Proteus vulgaris MTCC 1771 after 24 hrs
Klebsiella pneumoniae [11] = assay: Antibacterial activity against Klebsiella pneumoniae MTCC 109 after 24 hrs; conditions: MTCC 109, 24 h
Salmonella typhimurium [12] = assay: Antibacterial activity against Salmonella typhimurium MTCC 1251 after 24 hrs
[13] = Antifungal activity against Malassezia pachydermatis at 1 mg/disc after 48 hrs by disc diffusion method
Candida albicans [14] = assay: Antifungal activity against Candida albicans MTCC 227 at 1 mg/disc after 48 hrs by disc diffusion method
Staphylococcus aureus [15] = assay: Antibacterial activity against methicillin-resistant Staphylococcus aureus at 1 mg/disc after 24 hrs by disc diffusion method
Staphylococcus aureus [16] = assay: Antibacterial activity against Staphylococcus aureus MTCC 96 at 1 mg/disc after 24 hrs by disc diffusion method
Klebsiella aerogenes [17] = assay: Antibacterial activity against Enterobacter aerogenes MTCC 111 at 1 mg/disc after 24 hrs by disc diffusion method
Micrococcus luteus [18] = assay: Antibacterial activity against Micrococcus luteus MTCC 106 at 1 mg/disc after 24 hrs by disc diffusion method
Shigella flexneri [19] = assay: Antibacterial activity against Shigella flexneri MTCC 1457 at 1 mg/disc after 24 hrs by disc diffusion method
Proteus vulgaris [20] = assay: Antibacterial activity against Proteus vulgaris MTCC 1771 at 1 mg/disc after 24 hrs by disc diffusion method
Klebsiella pneumoniae [21] = assay: Antibacterial activity against Klebsiella pneumoniae MTCC 109 at 1 mg/disc after 24 hrs by disc diffusion method
Salmonella typhimurium [22] = assay: Antibacterial activity against Salmonella typhimurium MTCC 1251 at 1 mg/disc after 24 hrs by disc diffusion method; conditions: for inhibition: Salmonella enterica subsp. enterica serovar Typhimurium
[23] = Salmonella enterica subsp. enterica serovar Typhimurium
[24] = Salmonella enterica, MTCC 1251, 24 h

Compound	Activity (A549 [1]) [%]	Activity (A549 [2]) [%]	Activity (A549 [3]) [%]	MIC (Candida albicans [4]) [µg/mL]	MIC (Staphylococcus aureus [5]) [µg/mL]	MIC (Staphylococcus aureus [6]) [µg/mL]	MIC (Micrococcus luteus [8]) [µg/mL]	MIC (Shigella flexneri [9]) [µg/mL]	MIC (Proteus vulgaris [10]; MTCC 1771, 24 h) [µg/mL]	MIC (Klebsiella pneumoniae [11]) [µg/mL]	inhibition [13]	inhibition zone (IZ) (Candida albicans [14]) [mm]	inhibition zone (IZ) (Staphylococcus aureus [15]) [mm]	inhibition zone (IZ) (Staphylococcus aureus [16]) [mm]	inhibition zone (IZ) (Klebsiella aerogenes [17]) [mm]	inhibition zone (IZ) (Micrococcus luteus [18]) [mm]	inhibition zone (IZ) (Shigella flexneri [19]) [mm]	inhibition zone (IZ) (Proteus vulgaris [20]) [mm]	inhibition zone (IZ) (Klebsiella pneumoniae [21]) [mm]	inhibition zone (IZ) (Salmonella typhimurium [22]) [mm]	further results
CN1C[C@](C#N)(C(=O)c2c[nH]c3ccccc23)[C@]2(C(=O)Nc3ccccc32)[C@@]12C(=O)Nc1ccccc12	17.46	33.5	20.91	500 (≈ 1030 µM)	500 (≈ 1030 µM)	500 (≈ 1030 µM)	500 (≈ 1030 µM)	500 (≈ 1030 µM)	500 (≈ 1030 µM)	125 (≈ 256 µM)	inactive	9	10	8	9	9	8	8	12	–	MIC (Klebsiella aerogenes [7]; MTCC 111, 24 h): 500 µg/mL (≈ 1030 µM); MIC (Salmonella typhimurium [12]; [23]): inactive; inhibition (Salmonella typhimurium [22]): inactive
CN1C(=O)[C@@]2(c3cc(I)ccc31)N(C)C[C@](C#N)(C(=O)c1c[nH]c3ccccc13)[C@]21C(=O)Nc2ccccc21	4.34	26.85	12.66	500 (≈ 797 µM)	125 (≈ 199 µM)	125 (≈ 199 µM)	125 (≈ 199 µM)	500 (≈ 797 µM)	500 (≈ 797 µM)	500 (≈ 797 µM)	–	9	12	11	13	11	10	9	9	10	MIC (Klebsiella aerogenes [7]; MTCC 111, 24 h): 125 µg/mL (≈ 199 µM); MIC (Salmonella typhimurium [12]; [24]): 500 µg/mL (≈ 797 µM); inhibition zone (IZ) [13]: 11 mm
CN1C[C@](C#N)(C(=O)c2c[nH]c3ccccc23)[C@]2(C(=O)Nc3ccccc32)[C@@]12C(=O)N(Cc1ccccc1)c1ccccc12	9.26	23.95	16.03	500 (≈ 866 µM)	500 (≈ 866 µM)	125 (≈ 216 µM)	500 (≈ 866 µM)	500 (≈ 866 µM)	500 (≈ 866 µM)	125 (≈ 216 µM)	–	9	9	11	10	9	7	9	11	–	MIC (Klebsiella aerogenes [7]; MTCC 111, 24 h): 500 µg/mL (≈ 866 µM); MIC (Salmonella typhimurium [12]; [23]): inactive; inhibition zone (IZ) [13]: 10 mm; inhibition (Salmonella typhimurium [22]): inactive
CN1C(=O)[C@@]2(c3ccccc31)N(C)C[C@](C#N)(C(=O)c1c[nH]c3ccccc13)[C@]21C(=O)Nc2ccccc21	1.71	13.99	7.22	250 (≈ 498 µM)	500 (≈ 997 µM)	250 (≈ 498 µM)	250 (≈ 498 µM)	250 (≈ 498 µM)	125 (≈ 249 µM)	125 (≈ 249 µM)	inactive	12	11	13	8	11	12	14	13	10	MIC (Klebsiella aerogenes [7]): inactive; MIC (Salmonella typhimurium [12]; [24]): 500 µg/mL (≈ 997 µM)
CCCCN1C(=O)[C@@]2(c3ccccc31)N(C)C[C@](C#N)(C(=O)c1c[nH]c3ccccc13)[C@]21C(=O)Nc2ccccc21	4.27	32.25	19.6	500 (≈ 920 µM)	500 (≈ 920 µM)	500 (≈ 920 µM)	500 (≈ 920 µM)	500 (≈ 920 µM)	–	500 (≈ 920 µM)	inactive	8	11	9	10	8	9	–	8	10	MIC (Klebsiella aerogenes [7]; MTCC 111, 24 h): 500 µg/mL (≈ 920 µM); MIC (Proteus vulgaris [10]): inactive; MIC (Salmonella typhimurium [12]; [24]): 500 µg/mL (≈ 920 µM); inhibition (Proteus vulgaris [20]): inactive
C=CCN1C(=O)[C@@]2(c3ccccc31)N(C)C[C@](C#N)(C(=O)c1c[nH]c3ccccc13)[C@]21C(=O)Nc2ccccc21	5.61	16	8.81	500 (≈ 948 µM)	1000 (≈ 1900 µM)	500 (≈ 948 µM)	500 (≈ 948 µM)	1000 (≈ 1900 µM)	1000 (≈ 1900 µM)	125 (≈ 237 µM)	inactive	9	9	11	–	10	9	9	12	16	MIC (Klebsiella aerogenes [7]): inactive; MIC (Salmonella typhimurium [12]; [24]): 62.5 µg/mL (≈ 118 µM); inhibition (Klebsiella aerogenes [17]): inactive
CN1C[C@](C#N)(C(=O)c2c[nH]c3ccccc23)[C@]2(C(=O)Nc3ccccc32)[C@@]12C(=O)Nc1ccc(I)cc12	4.19	17.58	9.66	500 (≈ 815 µM)	1000 (≈ 1630 µM)	500 (≈ 815 µM)	1000 (≈ 1630 µM)	1000 (≈ 1630 µM)	500 (≈ 815 µM)	250 (≈ 408 µM)	inactive	10	8	10	9	8	8	9	13	11	MIC (Klebsiella aerogenes [7]): inactive; MIC (Salmonella typhimurium [12]; [24]): 500 µg/mL (≈ 815 µM)
CN1C[C@](C#N)(C(=O)c2c[nH]c3ccccc23)[C@]2(C(=O)Nc3ccccc32)[C@@]12C(=O)Nc1ccc([N+](=O)[O-])cc12	18.37	55.26	36.65	–	–	–	–	–	–	–	inactive	9	–	–	8	–	–	–	–	8	inhibition (Staphylococcus aureus [15]): inactive; inhibition (Staphylococcus aureus [16]): inactive; inhibition (Micrococcus luteus [18]): inactive; inhibition (Shigella flexneri [19]): inactive; inhibition (Proteus vulgaris [20]): inactive; inhibition (Klebsiella pneumoniae [21]): inactive
CCOC(=O)CN1C(=O)[C@@]2(c3ccccc31)N(C)C[C@](C#N)(C(=O)c1c[nH]c3ccccc13)[C@]21C(=O)Nc2ccccc21	11.04	27.78	21.25	–	–	–	–	–	–	–	–	9	–	9	–	–	–	8	–	–	inhibition zone (IZ) [13]: 11 mm; inhibition (Staphylococcus aureus [15]): inactive; inhibition (Klebsiella aerogenes [17]): inactive; inhibition (Micrococcus luteus [18]): inactive; inhibition (Shigella flexneri [19]): inactive; inhibition (Klebsiella pneumoniae [21]): inactive; inhibition (Salmonella typhimurium [22]): inactive
CC(=O)N1CCN(c2ccc(OCC3COC(Cn4ccnc4)(c4ccc(Cl)cc4Cl)O3)cc2)CC1 (stereo not given) [KETOCONAZOLE]	–	–	–	25 (≈ 47 µM)	–	–	–	–	–	–	–	28	–	–	–	–	–	–	–	–	inhibition zone (IZ) [13]: 26 mm
CN1C[C@](C#N)(C(=O)c2c[nH]c3ccccc23)[C@]2(C(=O)Nc3ccccc32)[C@@]12C(=O)N(c1ccccc1)c1ccccc12	39.41	47.89	41.58	–	–	–	–	–	–	–	–	13	–	7	–	–	–	–	9	–	inhibition zone (IZ) [13]: 14 mm; inhibition (Staphylococcus aureus [15]): inactive; inhibition (Klebsiella aerogenes [17]): inactive; inhibition (Micrococcus luteus [18]): inactive; inhibition (Shigella flexneri [19]): inactive; inhibition (Proteus vulgaris [20]): inactive; inhibition (Salmonella typhimurium [22]): inactive
CN1C(=O)[C@@]2(c3cc([N+](=O)[O-])ccc31)N(C)C[C@](C#N)(C(=O)c1c[nH]c3ccccc13)[C@]21C(=O)Nc2ccccc21	9.27	60.22	24.36	–	–	–	–	–	–	–	–	9	–	–	–	7	–	–	–	8	inhibition zone (IZ) [13]: 12 mm; inhibition (Staphylococcus aureus [15]): inactive; inhibition (Staphylococcus aureus [16]): inactive; inhibition (Klebsiella aerogenes [17]): inactive; inhibition (Shigella flexneri [19]): inactive; inhibition (Proteus vulgaris [20]): inactive; inhibition (Klebsiella pneumoniae [21]): inactive
CN[C@@H]1[C@H](O[C@H]2[C@H](O[C@H]3[C@H](O)[C@@H](O)[C@H](N=C(N)N)[C@@H](O)[C@@H]3N=C(N)N)O[C@@H](C)[C@]2(O)C=O)O[C@@H](CO)[C@H](O)[C@H]1O [STREPTOMYCIN]	–	–	–	–	6.25 (≈ 10.7 µM)	6.25 (≈ 10.7 µM)	6.25 (≈ 10.7 µM)	6.25 (≈ 10.7 µM)	–	6.25 (≈ 10.7 µM)	–	–	30	14	22	26	30	30	20	18	MIC (Klebsiella aerogenes [7]; MTCC 111, 24 h): 25 µg/mL (≈ 43 µM); MIC (Proteus vulgaris [10]): inactive; MIC (Salmonella typhimurium [12]; [24]): 30 µg/mL (≈ 51.6 µM)
